Patent US10980890B2, “Compounds comprising self-immolative group” (LegoChem Biosciences, Inc., priority 2014, dated 2021)
Square brackets hold non-standard residues; d marks the D form. Peptide text beside a SMILES is read from it. Dolaproine = CO[C@@H]([C@@H]1CCCN1)[C@@H](C)C(=O)O; Dil = CC[C@H](C)[C@H](NC)[C@@H](CC(=O)O)OC; NMeV = CN[C@H](C(=O)O)C(C)C

Assays:
Assay in all cases: Anti-proliferation assay of ADC (SRB)
Assay type in all cases: cell-based, human
Conditions in all cases: 72 hours, drug
[1] = test system: SK-Br3 (HER2 positive) breast cancer cell line
Protocol: (§1) Anti-cell proliferation activities of antibodies, a drug, and ADC(s) illustrated in the following Table 2 on cancer cell lines were measured.
(§2) As the cancer cell lines, commercialized human breast cancer cell lines MCF-7 (HER2-negative or -normal) and SK-Br3 (HER2 positive), and a commercialized ovarian cancer cell lines SK-OV3 (HER2 positive) were used. As the drug, MMAF was used.
After 72 hours, the numbers of living cells were quantified using a Sulforhodamine B (SRB) dye.

[2] = test system: MCF-7 (HER2-negative or -normal) breast cancer cell line
Protocol: as §1, §2
(§3) After each of the cancer cell lines was seeded in a 96-well plate at 10,000 cells/each well and cultured for 24 hours, the antibody and ADC were treated at a concentration of 0.01563-2 μg/ml (2 times serial dilution), and the drug was treated at a concentration of 4-500 nM (2 times serial dilution). After 72 hours, the numbers of living cells were quantified using a Sulforhodamine B (SRB) dye.

[3] = test system: SK-OV3 (HER2 positive) ovarian cancer cell line
Protocol: as §1, §2, §3

SMILES: CC[C@H](C)[C@@H]([C@@H](CC(=O)N1CCC[C@H]1[C@H](OC)[C@@H](C)C(=O)N[C@@H](Cc1ccccc1)C(=O)O)OC)N(C)C(=O)[C@@H](NC(=O)[C@@H](NC)C(C)C)C(C)C [MMAF, monomethylauristatin F] (H-[NMeV]V[Dil][Dolaproine]F-OH)
- IC50 [1]: 136 nM
- IC50 [2]: 142 nM
- IC50 [3]: 227 nM
